# Assay results as given in PMC9501377, “New Diarylamine KV10.1 Inhibitors and Their Anticancer Potential” (Pharmaceutics, 2022).
# Assays:
# KV10.1 = molecular target: T1, KV10.1 (Homo sapiens, UniProt O95259); test: Two-electrode voltage-clamp on Xenopus laevis oocytes expressing KV10.1; assay type: cell-based; settings: voltage-clamped
# T1 construct: expressed in transfected cells; host or cells: Xenopus laevis oocytes (cRNA injection)
# T1 sequence (O95259 1-989): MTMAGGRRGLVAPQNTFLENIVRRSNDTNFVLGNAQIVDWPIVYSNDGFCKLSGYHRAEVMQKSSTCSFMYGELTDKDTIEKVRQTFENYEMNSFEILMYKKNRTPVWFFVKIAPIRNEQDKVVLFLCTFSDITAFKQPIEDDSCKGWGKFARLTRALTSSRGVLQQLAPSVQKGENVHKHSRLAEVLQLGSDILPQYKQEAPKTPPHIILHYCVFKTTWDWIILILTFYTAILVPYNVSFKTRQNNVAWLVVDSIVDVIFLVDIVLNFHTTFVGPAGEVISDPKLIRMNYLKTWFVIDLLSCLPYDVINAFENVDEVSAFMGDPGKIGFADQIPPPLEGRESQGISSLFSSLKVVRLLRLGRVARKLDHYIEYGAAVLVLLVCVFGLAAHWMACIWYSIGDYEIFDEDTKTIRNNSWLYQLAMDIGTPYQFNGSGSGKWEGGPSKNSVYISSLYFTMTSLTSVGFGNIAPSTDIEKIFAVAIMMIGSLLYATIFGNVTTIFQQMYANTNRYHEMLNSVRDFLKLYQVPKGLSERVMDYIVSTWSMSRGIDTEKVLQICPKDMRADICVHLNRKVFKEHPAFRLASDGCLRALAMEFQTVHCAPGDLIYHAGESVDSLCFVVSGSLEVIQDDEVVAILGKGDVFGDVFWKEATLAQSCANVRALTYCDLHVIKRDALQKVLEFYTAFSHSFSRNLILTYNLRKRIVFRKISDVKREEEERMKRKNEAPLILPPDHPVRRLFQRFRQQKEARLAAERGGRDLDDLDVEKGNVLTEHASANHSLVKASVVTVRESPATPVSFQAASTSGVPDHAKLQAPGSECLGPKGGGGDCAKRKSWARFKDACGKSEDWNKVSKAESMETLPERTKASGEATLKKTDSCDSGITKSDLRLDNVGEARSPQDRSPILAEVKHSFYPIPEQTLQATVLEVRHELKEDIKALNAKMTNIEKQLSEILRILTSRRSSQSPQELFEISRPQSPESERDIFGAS
# Source text: (§1) Stage V–VI oocytes were isolated by partial ovariectomy from Xenopus laevis frogs (African clawed frog). Mature female frogs were purchased from CRB Xénopes (Rennes, France) and were housed in the Aquatic Facility (KU Leuven) in compliance with the regulations of the European Union (EU) concerning the welfare of laboratory animals as declared in Directive 2010/63/EU. The use of Xenopus laevis was approved by the Animal Ethics Committee of the KU Leuven (Project nr. P186/2019). After anesthetising the frogs by a 15 min submersion in 0.1% tricaine methanesulphonate (pH 7.0), the oocytes were collected. The isolated oocytes were then washed with a 1.5 mg/mL collagenase solution for 2 h to remove the follicle layer.
# (§2) Ion channels (KV10.1 and hERG) were expressed in Xenopus laevis oocytes, by linearisation of the plasmids and subsequent in vitro transcription using a commercial T7 or SP6 mMESSAGE mMACHINE transcription kit (Ambion, Carlsbad, CA, USA). Defolliculated Xenopus oocytes were then injected with 20–50 nL of the cRNA at a concentration of 1 ng/nL using a micro-injector (Drummond Scientific1, Broomall, PA, USA). The oocytes were incubated in a solution containing (in mM): NaCl, 96; KCl, 2; CaCl2, 1.8; MgCl2, 2 and HEPES, 5 (pH 7.4), supplemented with 50 mg/L gentamycin sulphate and […]. After ex vivo translation, the ion channels are correctly inserted in the cell membrane of the oocytes.
# (§3) Two-electrode voltage-clamp recordings were performed at room temperature (18–22 °C) using a Geneclamp 500 amplifier (Molecular Devices, San Jose, CA, USA) controlled by a pClamp data acquisition system (Axon Instruments1, Union City, CA, USA) and using an integrated digital TEVC amplifier controlled by HiClamp, an automated Voltage-Clamp Screening System (Multi Channel Systems MCS GmbH, Reutlingen, Germany). Whole-cell currents from oocytes were recorded 1–7 days after injection. The bath solution composition was ND96 (in mM): NaCl, 96; KCl, 2; CaCl2, 1.8; MgCl2, 2 and HEPES, 5 (pH 7.5). Voltage and current electrodes were filled with a 3 M solution of KCl in H2O. Resistances of both electrodes were kept between 0.5 and 1.5 MΩ. The elicited Kv10.1 and hERG currents were filtered at 0.5 kHz and sampled at 2 kHz using a four-pole low-pass Bessel filter. Leak subtraction was performed using a p/4 protocol. Starting from a holding potential of −90 mV, currents for Kv10.1 were evoked by 1 s depolarizing pulses to 0 mV and currents for hERG were evoked by 2.5 s depolarizing prepulses to +40 mV, followed by hyperpolarizing pulses to −120 mV for 2.5 s. The concentration dependency of all compounds was assessed by measuring the current inhibition in the presence of increasing compound concentrations. To this end, a stock solution of the compounds was prepared in 100% DMSO for the sake of solubility. From this stock solution, adequate dilutions with a maximum of 0.5% DMSO were made for testing. The data of the concentration–response curves were fitted with the Hill equation: y = 100/{1 + (IC50/[compound])^h}, where y is the amplitude of the compound- induced effect, IC50 is the compound concentration at half-maximal efficacy, (compound) is the compound concentration, and h is the Hill coefficient.
# (§4) All electrophysiological data are presented as means ± SEM of n ≥ 3 independent experiments unless otherwise indicated. Oocyte data were analysed using pClamp Clampfit 10.4 (Molecular Devices, Downingtown, PA, USA) and OriginPro 9 (Originlab, Northampton, MA, USA) or GraphPad Prism 8 software (GraphPad Software, Inc., San Diego, CA, USA). Patch-clamp data analysis was performed using FitMaster (HEKA Electronics), IgorPro (Wavemetrics, Inc., Lake Oswego, OR, USA) and GraphPad Prism 9 (GraphPad Software, Inc., San Diego, CA, USA). The Dunnett test and one-way ANOVA were performed to calculate the significance of the induced inhibition compared to the control (p < 0.05).
# hERG = hERG (Homo sapiens, UniProt Q12809); test: Two-electrode voltage-clamp on Xenopus laevis oocytes expressing hERG; assay type: cell-based; design: expressed in transfected cells; host or cells: Xenopus laevis oocytes (cRNA injection); settings: voltage-clamped; for inhibition at 10 µM: human, Xenopus laevis oocytes expressing hERG, pH 7.5, 10 μM
# Sequence of hERG (Q12809 whole entry): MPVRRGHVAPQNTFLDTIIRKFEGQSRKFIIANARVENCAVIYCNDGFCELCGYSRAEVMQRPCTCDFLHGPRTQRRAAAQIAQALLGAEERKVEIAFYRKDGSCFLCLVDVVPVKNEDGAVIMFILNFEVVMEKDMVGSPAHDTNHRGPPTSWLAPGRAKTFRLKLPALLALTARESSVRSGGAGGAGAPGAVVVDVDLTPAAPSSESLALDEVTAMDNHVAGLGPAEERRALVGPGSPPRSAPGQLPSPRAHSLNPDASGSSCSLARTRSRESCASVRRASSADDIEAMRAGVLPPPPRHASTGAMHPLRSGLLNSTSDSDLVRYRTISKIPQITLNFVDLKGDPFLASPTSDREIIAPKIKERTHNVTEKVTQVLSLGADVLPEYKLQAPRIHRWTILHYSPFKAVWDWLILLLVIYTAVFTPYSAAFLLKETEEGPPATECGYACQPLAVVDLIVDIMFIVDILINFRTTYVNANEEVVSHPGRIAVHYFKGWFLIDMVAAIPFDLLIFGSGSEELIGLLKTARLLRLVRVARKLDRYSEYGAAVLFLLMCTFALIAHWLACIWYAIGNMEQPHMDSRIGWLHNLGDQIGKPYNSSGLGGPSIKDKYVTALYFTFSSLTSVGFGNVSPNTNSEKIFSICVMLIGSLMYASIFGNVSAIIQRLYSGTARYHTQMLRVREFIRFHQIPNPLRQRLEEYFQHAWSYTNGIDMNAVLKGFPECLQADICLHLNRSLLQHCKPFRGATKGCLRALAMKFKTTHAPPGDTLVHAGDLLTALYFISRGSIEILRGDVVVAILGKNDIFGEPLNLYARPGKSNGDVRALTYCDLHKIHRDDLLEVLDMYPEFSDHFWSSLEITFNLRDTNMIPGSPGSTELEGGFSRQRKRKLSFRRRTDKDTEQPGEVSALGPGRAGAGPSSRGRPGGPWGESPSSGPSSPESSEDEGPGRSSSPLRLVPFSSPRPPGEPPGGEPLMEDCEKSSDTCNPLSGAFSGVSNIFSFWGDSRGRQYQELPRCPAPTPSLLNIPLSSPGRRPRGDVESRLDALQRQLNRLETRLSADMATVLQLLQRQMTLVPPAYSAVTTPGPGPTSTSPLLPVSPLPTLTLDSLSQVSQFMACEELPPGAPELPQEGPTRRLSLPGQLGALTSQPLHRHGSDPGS
# Source text: as §1, §2, §3, §4
Compound,inhibition at 10 µM (KV10.1; 10 μM),IC50 (KV10.1),inhibition at 10 µM (hERG),IC50 (hERG),% of Kv10.1 inhibition at 10 μM (Xenopus laevis oocytes) (KV10.1; 10 μM),% of hERG inhibition at 10 μM (Xenopus laevis oocytes) (hERG; 10 μM)
"CN(C)CCOc1c(Cl)cc(Nc2ccc(C(F)(F)F)cc2[N+](=O)[O-])cc1Cl [Compound 18c, 3,5-Dichloro-4-(2-(dimethylamino)ethoxy)-N-(2-nitro-4-(trifluoromethyl)phenyl)aniline]",58.2%,19 ± 2.85 µM,76.8%,0.66 ± 0.27 µM,–,–
"O=[N+]([O-])c1cc(C(F)(F)F)ccc1Nc1ccc(OCCN2CCCC2)cc1 [Compound 19, 2-Nitro-N-(4-(2-(pyrrolidin-1-yl)ethoxy)phenyl)-4-(trifluoromethyl)aniline]",55.7%,–,65.9%,–,–,–
"O=[N+]([O-])c1cc(C(F)(F)F)ccc1Nc1ccc(OCCN2CCCCC2)cc1 [Compound 20, 2-Nitro-N-(4-(2-(piperidin-1-yl)ethoxy)phenyl)-4-(trifluoromethyl)aniline]",36.3%,12.93 ± 0.04 µM,75.6%,0.59 ± 0.01 µM,–,–
"O=[N+]([O-])c1cc(C(F)(F)F)ccc1Nc1ccc(OCCN2CCCCCC2)cc1 [Compound 21, N-(4-(2-(Azepan-1-yl)ethoxy)phenyl)-2-nitro-4-(trifluoromethyl)aniline]",43.4%,13.3 ± 1.89 µM,77.5 ± 5.71%,1.34 ± 0.32 µM,–,–
Methyl 2-((4-(2-hydroxy-3-morpholinopropoxy)phenyl)amino)benzoate [Compound 5e],–,–,–,–,-2.17% ± 3.06,37.32% ± 13.11
